How the values were obtained:
[1] = test system: HDACs (HeLa nuclear extract); experiment: HDAC deacetylation inhibition assay, HeLa nuclear extract with BOC-Ac-Lys-AMC substrate; assay type: biochemical, human; details: BOC-Ac-Lys-AMC substrate; for HDAC inhibition (%): compound at 100 µM; for IC50: read-out: IC50 values, HeLa nuclear extract
Experimental: With these N^ɛ-acetyl lysine derivatives in hand (schemes 1–3), we then did the pilot screening for general HDAC inhibitory activity at a compound's concentration of 100 µM. All tested compounds were subjected to the inhibition assay against the HDAC deacetylation reaction by using a HeLa nuclear extract as a source of HDACs and BOC-Ac-Lys-AMC as a substrate.
HDACS inhibition assay in vitro
In vitro HDACs inhibition assays were conducted as previously described. In brief, 4 μL of […]
(1μL), then fluorogenic substrate Boc-Lys(acetyl)-AMC (100 μM) and Buffer A (50 mM Tis-HCl pH=8.0, 150 mM NaCl, 30 mM KCl, 10 mM MgCl2) were added. After incubation at 37℃ for 1h, […]
And then incubation at 37℃ for 1h, the mixture was stopped by the addition of 50 μL of Buffer B (200mM HCl/300 mM Acetic acid), fluorescence intensity was measured using a microplate reader at excitation and emission wavelengths of 360 nm and 460 nm. The inhibition ratios were calculated from the fluorescence intensity readings of tested wells relative to those of control wells, […]
regression analysis of the concentration/inhibition data. All experiments were done in triplicate. […]

[2] = test system: HEK293; experiment: MTS cell proliferation assay, HEK293 (non-cancerous kidney cell); assay type: cell-based; details: Homo sapiens, HEK293; MTS assay, 48 hours; normal cells
Experimental: (§1) Because of the great anti-tumour potential of HDAC inhibitors, we did the antiproliferative evaluation of 18c against K562 cells, A549 cells and HepG2 cells using MTS assay as previously described. […]
(§2) The rate of cell survival under the action of test substances was evaluated by an improved MTS assay as previously described. In brief, A549 (5000 cells / well) , HepG2 (5000 cells / well), HEK293 (5000 cells / well) and K562 (1 ×10^4 cells/well) cell lines were seeded into 96-well plates in 100 µL medium. After overnight incubation, each well was added with different […]
(§3) 48 hours 5ul of MTS reagent solution was added into each well and the cells were incubated for another 4 hours at 37℃ under 5% CO2 environment. The absorbance was measured at 490 nm in […]
(§4) a Microplate to determine the cell viability. The absorbance was directly proportional to the number of viable cells. All experiments were done in triplicate. […]
(§5) calculate and compare their selective index. […]
(§6) Unbound antibodies

[3] = test system: A549 cells; experiment: MTS cell proliferation assay, A549; assay type: cell-based, human
Experimental: as §1, §2, §3, §4, §5, §6

[4] = test system: HepG2 cells; experiment: MTS cell proliferation assay, HepG2; assay type: cell-based, human
Experimental: as §1, §2, §3, §4, §5, §6

[5] = test system: K562 cells; experiment: MTS cell proliferation assay, K562; assay type: cell-based, human
Experimental: as §1, §2, §3, §4, §5, §6

[6] = molecular target: T1, HDAC8 (Homo sapiens, UniProt Q9BY41); experiment: HDAC subtype selectivity assay with subtype substrate, HDAC8; assay type: biochemical; details: read-out: HDAC Inhibition (%) HDAC8
T1 construct: Hela nuclear extract; endogenous in cells; host or cells: HeLa nuclear extract
T1 sequence (Q9BY41 1-377): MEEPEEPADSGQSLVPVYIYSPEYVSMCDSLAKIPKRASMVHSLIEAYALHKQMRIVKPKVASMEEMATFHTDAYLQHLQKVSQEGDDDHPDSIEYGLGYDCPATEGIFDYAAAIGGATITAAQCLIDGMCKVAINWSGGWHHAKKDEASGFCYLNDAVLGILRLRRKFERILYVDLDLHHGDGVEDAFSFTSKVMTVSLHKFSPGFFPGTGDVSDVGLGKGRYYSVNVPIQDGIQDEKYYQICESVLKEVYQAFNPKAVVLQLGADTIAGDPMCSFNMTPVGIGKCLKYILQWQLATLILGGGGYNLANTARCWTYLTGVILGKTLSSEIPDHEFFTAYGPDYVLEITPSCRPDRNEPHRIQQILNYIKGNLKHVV

[7] = Homo sapiens, MTS assay, 48 hours

Row | SMILES | HDAC inhibition (%) [1] [%] | further results
1 | O=C(N[C@@H](CCCCNC(=O)c1ccc2ncccc2c1)C(=O)Nc1ccccc1)OCc1ccccc1 [Compound 14i] | 36.8 ± 1.1 | –
2 | O=C(N[C@@H](CCCCNC(=O)c1ccco1)C(=O)Nc1ccccc1)OCc1ccccc1 [Compound 14e] | 54.0 ± 1.9 | –
3 | CC(C)(C)OC(=O)N[C@@H](Cc1c[nH]c2ccccc12)C(=O)NCCCC[C@H](NC(=O)OCc1ccccc1)C(=O)Nc1ccccc1 [Compound 14p] | 24.7 ± 2.8 | –
4 | O=C(CCC(=O)NCCCC[C@H](NC(=O)OCc1ccccc1)C(=O)Nc1ccccc1)NO [Compound 11] | 86.0 ± 3.0 | IC50 [1]: 25.4 ± 1.35 µM
5 | O=C(O)CCCCC(=O)NCCCC[C@H](NC(=O)OCc1ccccc1)C(=O)Nc1ccccc1 [Compound 16b] | 4.3 ± 0.5 | –
6 | Nc1ccccc1NC(=O)CC(=O)NCCCC[C@H](NC(=O)OCc1ccccc1)C(=O)Nc1ccccc1 [Compound 17a] | 7.0 ± 0.4 | –
7 | COC(=O)CC(=O)NCCCC[C@H](NC(=O)OCc1ccccc1)C(=O)Nc1ccccc1 [Compound 15a] | 19.4 ± 10.9 | –
8 | Nc1ccccc1NC(=O)CCC(=O)NCCCC[C@H](NC(=O)OCc1ccccc1)C(=O)Nc1ccccc1 [Compound 12] | 30.7 ± 3.7 | –
9 | O=C(O)CCCCCCC(=O)NCCCC[C@H](NC(=O)OCc1ccccc1)C(=O)Nc1ccccc1 [Compound 16c] | 1.1 ± 0.4 | IC50 [2]: > 500 µM; antiproliferative activity ([3]; 500 µM, MTS): no obvious antiproliferative activities; IC50 [3, 7]: > 500 µM; antiproliferative activity ([4]; 500 µM, MTS): no obvious antiproliferative activities; IC50 [4, 7]: > 500 µM; antiproliferative activity ([5]; 500 µM, MTS): no obvious antiproliferative activities; IC50 [5, 7]: > 500 µM
10 | O=C(N[C@@H](CCCCNC(=O)c1cnc2ccccc2c1)C(=O)Nc1ccccc1)OCc1ccccc1 [Compound 14h] | 28.3 ± 4.6 | –
11 | O=C(N[C@@H](CCCCNC(=O)c1coc2ccccc12)C(=O)Nc1ccccc1)OCc1ccccc1 [Compound 14m] | 14.3 ± 0.5 | –
12 | N[C@@H](Cc1c[nH]c2ccccc12)C(=O)NCCCC[C@H](NC(=O)OCc1ccccc1)C(=O)Nc1ccccc1 [Compound 14q] | 36.2 ± 0.4 | –
13 | O=C(N[C@@H](CCCCNC(=O)c1csc2ccccc12)C(=O)Nc1ccccc1)OCc1ccccc1 [Compound 14n] | 16.2 ± 2.0 | –
14 | COC(=O)CCCCC(=O)NCCCC[C@H](NC(=O)OCc1ccccc1)C(=O)Nc1ccccc1 [Compound 15b] | 2.9 ± 0.8 | –
15 | O=C(N[C@@H](CCCCNCc1c[nH]c2ccccc12)C(=O)Nc1ccccc1)OCc1ccccc1 [Compound 14l] | 3.1 ± 0.5 | –
16 | O=C(CCCCCCC(=O)Nc1ccccc1)NO [SAHA (1), Vorinostat, reference compound] | – | inhibition at 1 µM [6]: 41.19 ± 0.18%
17 | O=C(N[C@@H](CCCCNC(=O)c1cccs1)C(=O)Nc1ccccc1)OCc1ccccc1 [Compound 14f] | 45.0 ± 0.4 | –

Row | SMILES | HDAC inhibition (%) [1] [%] | further results
18 | O=C(N[C@@H](CCCCNC(=O)c1cccnc1)C(=O)Nc1ccccc1)OCc1ccccc1 [Compound 14a] | 39.6 ± 0.4 | –
19 | O=C(CS)NCCCC[C@H](NC(=O)OCc1ccccc1)C(=O)Nc1ccccc1 [Compound 14g] | 10.3 ± 4.9 | –
20 | O=C(N[C@@H](CCCCNC(=O)c1ccc[nH]1)C(=O)Nc1ccccc1)OCc1ccccc1 [Compound 14d] | 48.4 ± 4.4 | –
21 | Nc1ccccc1NC(=O)CCCCCCC(=O)NCCCC[C@H](NC(=O)OCc1ccccc1)C(=O)Nc1ccccc1 [Compound 17c] | 50.6 ± 6.9 | –
22 | O=C(/C=C/c1cccnc1)NCCCC[C@H](NC(=O)OCc1ccccc1)C(=O)Nc1ccccc1 [Compound 14c] | 51.0 ± 1.0 | –
23 | O=C(/C=C/C(=O)NCCCC[C@H](NC(=O)OCc1ccccc1)C(=O)Nc1ccccc1)NO [Compound 13] | 39.3 ± 3.1 | –
24 | O=C(CCCCC(=O)NCCCC[C@H](NC(=O)OCc1ccccc1)C(=O)Nc1ccccc1)NO [Compound 18b] | 99.9 ± 0.9 | IC50 [1]: 10.4 ± 3.86 µM
25 | O=C(O)CCC(=O)NCCCC[C@H](NC(=O)OCc1ccccc1)C(=O)Nc1ccccc1 [Compound 9] | 37.5 ± 0.6 | –
26 | O=C(O)/C=C/C(=O)NCCCC[C@H](NC(=O)OCc1ccccc1)C(=O)Nc1ccccc1 [Compound 10] | 38.7 ± 1.0 | –
27 | O=C(CC1SC(=O)NC1=O)NCCCC[C@H](NC(=O)OCc1ccccc1)C(=O)Nc1ccccc1 (stereo partly drawn) [Compound 14o] | 48.6 ± 0.5 | –
28 | O=C(N[C@@H](CCCCNC(=O)C1=CCc2ccccc21)C(=O)Nc1ccccc1)OCc1ccccc1 [Compound 14k] | 22.4 ± 0.2 | –
29 | Nc1ccccc1NC(=O)CCCCC(=O)NCCCC[C@H](NC(=O)OCc1ccccc1)C(=O)Nc1ccccc1 [Compound 17b] | 69.3 ± 3.4 | –
30 | COC(=O)CCCCCCC(=O)NCCCC[C@H](NC(=O)OCc1ccccc1)C(=O)Nc1ccccc1 [Compound 15c] | 7.1 ± 0.3 | –
31 | O=C(O)CC(=O)NCCCC[C@H](NC(=O)OCc1ccccc1)C(=O)Nc1ccccc1 [Compound 16a] | 4.0 ± 1.7 | –
32 | Cc1ccc(C(=O)NCCCC[C@H](NC(=O)OCc2ccccc2)C(=O)Nc2ccccc2)cn1 [Compound 14b] | 39.2 ± 0.8 | –
33 | O=C(N[C@@H](CCCCNC(=O)c1c[nH]c2ccccc12)C(=O)Nc1ccccc1)OCc1ccccc1 [Compound 14j] | 12.2 ± 6.5 | –

From article PMC6599804, “N^ɛ-acetyl lysine derivatives with zinc binding groups as novel HDAC inhibitors” (Royal Society Open Science, 2019)
